From patent US6555692B1, “Preparation and use of bifunctional molecules having DNA sequence binding specificity” (California Institute of Technology, priority 1996, dated 2003) come the findings set out here.

The test system of one assay is 5′-TGTGAACA-3′. As to the kind of experiment: DNase I footprint titrations. The following applies: single base pair mismatch sequence.
A further assay relates to 5′-AACCAAGTACTTGGTA-3′. Description: Association constants, recognition of 16 base pairs. The class given is binding. The following applies: Table 10, C3-OH polyamides, match site.
The test system of the next assay is 5′-AACCAAGTCTTGGTA-3′. Description: Association constants, recognition of 15 base pairs. The following applies: Table 7, C3-OH polyamides, match site.
A further assay has as its system 5′-TGTAACA-3′. Description: DNase I footprint titration.
The subject of another assay is 5′-TGGAACA-3′. Description: DNase I footprint titration. The following applies: formal match sequence.
The target of assay [1] is nine bp polyamide binding site on restriction fragment from pUC-19. Description: Pvu II endonuclease protection assay, association and dissociation rates. An excerpt:
Provided herein is an endonuclease protection assay to measure the rate of polyamide-DNA complex formation. Such an assay may comprise a labeled restriction fragment comprising a polyamide binding site that overlaps a restriction endonuclease cleavage site. Cleavage by the cognate is prevented when the overlapping polyamide binding site is occupied by the polyamide. As a control, a second labeled DNA fragment may be that contains the restriction site, but lacks the overlapping polyamide binding site. The rate of polyamide association with its target binding site may be assessed by incubating the solutions of the polyamide with the labeled target and reference fragments for a sufficient timer period. Using the experimental conditions provided herein, the reference site is nearly completely digested, but protection at the target site is observed and can be correlated with polyamide concentration and the time of equilibration. Similarly, the dissociation rate is analyzed by adding an excess of unlabeled competitor DNA to an equilibrated solution of the labeled DNA fragments and polyamide. Addition of the competitor reduces the concentration of free polyamide to zero. The rate at with polyamide dissociation occurs from the target site on the labeled fragment can be followed by the rate of loss of protection from restriction enzyme digestion as the re-equilibration time is increased.
An engineered, radiolabeled restriction fragment from pUC-19 was prepared in which a nine bp polyamide binding site overlaps by two base pairs with the cleavage site for the restriction endonuclease Pvu II. Cleavage by Pvu II is prevented when the overlapping polyamide binding site is .occupied by the polyamide. As a control, a second radiolabeled DNA fragment was prepared which contains a Pvu II site, but lacks the overlapping polyamide binding site.
The rate of polyamide association with its target binding site was assessed by combining solutions of the polyamide with the radiolabeled target and reference fragments and allowing them to for 5 minutes to 5 hours before initiating a treatment (1-2 minutes) with the enzyme Pvu II. Under the experimental conditions, the reference site is nearly completely digested, but protection at the target site is observed and can be correlated with polyamide concentration and the time of equilibration. Similarly, the dissociation rate is analyzed by adding an excess of unlabeled competitor DNA to an equilibrated solution of the labeled DNA fragments and polyamide. Addition of the competitor reduces the concentration of free polyamide to zero. The rate at with polyamide dissociation occurs from the target site on the labeled fragment can be followed by the rate of loss of protection from Pvu II digestion as the re-equilibration time is increased. The association profile with respect to time for the 9-ring extended hairpin polyamide ImPyPy-γ-ImPyPy-β-PyPyPy-G-Dp binding its cognate 9 base pair match site is shown in FIG. 6.
The extended hairpin dissociation rate has been determined to be kd=3.1±0.2×10^−5 s^−1, this corresponds to a half-time of 6.2 h (10 mM Bis-Tris (pH 7.0), 50 mM NaCl, 5 mM MgCl2, 1 mM mercaptoethanol at 37° C.). Wherein half-time is defined as the time required for 50% of a population of DNA and polyamide to dissociate or associate. The association rate has been determined at ka=1.3±0.8×10^4 M^−1s^−1; this corresponds to a half-time of 3.0 h at 5.0 nM. The determined value for the equilibrium association constant (Keq=6.3±0.8×10^8 M^−1) correlates well with the kinetically determined ratio (ka/kd=4.2±2.6×10^8 M^−1).

The subject of the next assay is 5′-AAAAACACA-3′. As to the kind of experiment: Quantitative DNase I footprint titration.

A value given as a limit tells only on which side of the number the result lay.

With `CN(C)CCCNC(=O)CCNC(=O)c1cc(NC(=O)c2cc(NC(=O)CCNC(=O)c3cc(NC(=O)c4cc(NC(=O)c5nc(NC(=O)CCCNC(=O)c6cc(NC(=O)c7cc(NC(=O)c8cc(NC(=O)CCNC(=O)c9cc(NC(=O)c%10nccn%10C)cn9C)cn8C)cn7C)cn6C)cn5C)cn4C)cn3C)cn2C)cn1C`, the Ka in the assay with 5′-TGTGAACA-3′ is under 1e+09 M⁻¹.
In the assay with 5′-AACCAAGTACTTGGTA-3′, `Cn1cc(NC(=O)c2cc(NC(=O)c3cc(NC(=O)CCCNC(=O)c4cc(NC(=O)c5nc(NC(=O)c6nc(NC(=O)CCCCCNC(=O)c7cc(NC(=O)c8cc(NC(=O)c9cc(NC(=O)c%10nccn%10C)cn9C)cn8C)cn7C)cn6C)cn5C)cn4C)cn3C)cn2C)cc1C(=O)NCCCO` [ImPyPyPy-C6-ImImPy-γ-PyPyPy-C3—OH] gave a Ka 5′-AACCAAGTACTTGGTA of under 1e+08 M⁻¹.
As for `CC(=O)Nc1cn(C)c(C(=O)Nc2cn(C)c(C(=O)Nc3cc(C(=O)NCCCC(=O)Nc4cc(C(=O)Nc5cc(C(=O)Nc6cc(C(=O)NCCCO)n(C)c6)n(C)c5)n(C)c4)n(C)c3)n2)n1` [Ac-ImImPy-γ-PyPyPy-C3—OH], the “Ka 5′-AACCAAGTACTTGGTA” value with 5′-AACCAAGTACTTGGTA-3′ is recorded as 7 × 10^6. Besides, the “Ka 5′-AACCAAGTCTTGGTA-3′” value in the assay on 5′-AACCAAGTCTTGGTA-3′ is 7 × 10^6.
Turning to `CN(C)CCCNC(=O)CCNC(=O)c1cc(NC(=O)c2cc(NC(=O)c3cc(NC(=O)c4cc(NC(=O)c5nc(NC(=O)CCCNC(=O)c6cc(NC(=O)c7cc(NC(=O)c8cc(NC(=O)c9nc(NC(=O)c%10nccn%10C)cn9C)cn8C)cn7C)cn6C)cn5C)cn4C)cn3C)cn2C)cn1C` [ImImPyPyPy-γ-ImPyPyPyPy-β-Dp], the “reduction of affinity of the 5′-TGTAACA-3′ complex relative to ImPyPyPyPy-γ-ImPyPyPyPy-β-Dp” value in the assay with 5′-TGTAACA-3′ is over 300 fold. In the assay with 5′-TGTAACA-3′ (5′-TGTAACA-3′ complexes), the free energy difference result is “at least 4 kcal/mol”. In addition, the “equilibrium association constant Ka” value in the assay with 5′-TGTAACA-3′ (pH 7.0, 22° C.) is under 1e+07 M⁻¹; in the assay on 5′-TGGAACA-3′, 3.6×10^9 m^−1.
Regarding `CN(C)CCCNC(=O)CNC(=O)c1cc(NC(=O)c2cc(NC(=O)c3cc(NC(=O)CCNC(=O)c4cc(NC(=O)c5cc(NC(=O)c6nc(NC(=O)CCCNC(=O)c7cc(NC(=O)c8cc(NC(=O)c9nccn9C)cn8C)cn7C)cn6C)cn5C)cn4C)cn3C)cn2C)cn1C` [ImPyPy-γ-ImPyPy-β-PyPyPy-G-Dp], the “kinetically determined ratio ka/kd” value in assay [1] was 4.2±2.6×10^8 M^−1. Besides, the dissociation rate kd in assay [1] (10 mM Bis-Tris (pH 7.0), 50 mM NaCl, 5 mM MgCl2, 1 mM mercaptoethanol at 37° C.) is 3.1±0.2×10^−5 s^−1. In addition, in assay [1] (37° C.), the association rate ka is on record as 1.3±0.8×10^4 M^−1s^−1, the dissociation half-time was 6.2 h and the “equilibrium association constant Keq” value is given as 6.3±0.8×10^8 M^−1. The association half-time in assay [1] (at 5.0 nM) worked out at 3.0 h. The “increase in affinity relative to six-ring hairpin ImPyPy-γ-ImPyPy-β-Dp” value in the assay with 5′-AAAAACACA-3′ is given as about 400 fold. At 5′-AAAAACACA-3′ (read-out: concentration at which the target site is bound, 9-bp target site), the Kd was 0.05 nM.
